US7994209B2, “3-phenoxymethylpyrrolidine compounds” (Theravance, Inc., priority 2009, dated 2011)
Marks after values point to notes of the source that are not given here.

How the values were obtained:
SERT and NET = conditions: cited from earlier work
hSERT [1] = molecular target: T1, hSERT (Homo sapiens, UniProt P31645); test: fluorescence-based serotonin reuptake inhibition assay (Tsuruda et al. 2010; data indicated by an asterisk); assay type: cell-based; design: expressed in transfected cells; host or cells: HEK-293; conditions: fluorescence-based assay (values with asterisk); for IC50: read-out: SERT pIC50 (converted)
hNET [2] = molecular target: T2, hNET (Homo sapiens, UniProt P23975); test: fluorescence-based norepinephrine reuptake inhibition assay (Tsuruda et al. 2010; data indicated by an asterisk); assay type: cell-based; design: expressed in transfected cells; host or cells: HEK-293; conditions: norepinephrine reuptake inhibition, fluorescence-based assay (values with asterisk); for IC50: read-out: NET pIC50 (converted)
hSERT [3] = molecular target: T1, hSERT; test: hSERT membrane radioligand binding assay (3H-citalopram), Assay 1; conditions: hSERT HEK-293 membranes, 1.0 nM 3H-citalopram, values given as lower bounds; for Ki: SERT pKi
hNET [4] = molecular target: T2, hNET; test: hNET membrane radioligand binding assay (3H-nisoxetine), Assay 1

T2 sequence (P23975 whole entry): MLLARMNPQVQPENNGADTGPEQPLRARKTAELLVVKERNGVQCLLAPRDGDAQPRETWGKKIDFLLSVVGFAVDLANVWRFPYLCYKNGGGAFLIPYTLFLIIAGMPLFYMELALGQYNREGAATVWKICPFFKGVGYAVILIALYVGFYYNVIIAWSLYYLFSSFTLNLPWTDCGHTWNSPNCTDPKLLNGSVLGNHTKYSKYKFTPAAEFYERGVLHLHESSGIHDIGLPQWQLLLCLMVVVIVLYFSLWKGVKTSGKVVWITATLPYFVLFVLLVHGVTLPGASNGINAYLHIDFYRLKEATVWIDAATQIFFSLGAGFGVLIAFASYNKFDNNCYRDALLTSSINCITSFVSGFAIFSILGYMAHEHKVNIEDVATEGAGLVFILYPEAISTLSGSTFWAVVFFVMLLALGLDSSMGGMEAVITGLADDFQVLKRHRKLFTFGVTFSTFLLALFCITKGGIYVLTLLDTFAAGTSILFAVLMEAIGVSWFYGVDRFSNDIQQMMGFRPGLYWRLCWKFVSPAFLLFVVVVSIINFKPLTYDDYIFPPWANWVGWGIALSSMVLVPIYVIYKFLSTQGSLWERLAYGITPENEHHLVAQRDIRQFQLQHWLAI
T1 sequence (P31645 whole entry): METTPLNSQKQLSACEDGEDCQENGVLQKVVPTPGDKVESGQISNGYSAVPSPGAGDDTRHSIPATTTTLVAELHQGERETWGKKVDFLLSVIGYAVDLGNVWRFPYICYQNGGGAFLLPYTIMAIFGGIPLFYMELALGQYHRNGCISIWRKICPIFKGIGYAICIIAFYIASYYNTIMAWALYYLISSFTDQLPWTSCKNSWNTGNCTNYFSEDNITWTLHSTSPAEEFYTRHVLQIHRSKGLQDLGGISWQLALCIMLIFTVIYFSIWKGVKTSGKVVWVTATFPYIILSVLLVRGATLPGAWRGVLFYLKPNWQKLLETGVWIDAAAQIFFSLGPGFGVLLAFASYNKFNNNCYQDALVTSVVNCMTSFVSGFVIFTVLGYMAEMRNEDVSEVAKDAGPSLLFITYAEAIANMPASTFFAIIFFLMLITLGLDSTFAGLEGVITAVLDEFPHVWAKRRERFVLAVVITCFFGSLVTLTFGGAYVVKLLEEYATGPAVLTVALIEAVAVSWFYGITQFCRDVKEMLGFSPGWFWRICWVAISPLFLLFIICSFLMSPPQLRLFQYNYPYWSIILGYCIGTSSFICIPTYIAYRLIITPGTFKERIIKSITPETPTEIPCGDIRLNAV

| Molecule | IC50 (hSERT [1]) [µM] | IC50 (hNET [2]) [µM] | Ki (hSERT [3]) [µM] | Ki (hNET [4]) [µM] | also measured |
| --- | --- | --- | --- | --- | --- |
| CNCC[C@@H](Oc1ccccc1C)c1ccccc1 [Atomoxetine] |  |  |  |  | NET selective (SERT and NET; NET selectivity): 10 fold |
| Cc1ccc(O[C@@H](C2CC2)[C@H]2CCNC2)c(F)c1F [Example 16-50, (S)-3-[(S)cyclopropyl-(2,3-difluoro-4-methylphenoxy)methyl]pyrrolidine] | ≤ 0.01 | ≤ 0.01 | ≤ 0.01 | ≤ 0.01 |  |
| Fc1c(Cl)ccc(O[C@@H](C2CC2)[C@H]2CCNC2)c1Cl [Example 16-52, (S)-3-[(S)cyclopropyl-(2,4-dichloro-3-fluorophenoxy)methyl]pyrrolidine] | ≤ 0.01 | ≤ 0.01 | ≤ 0.01 | ≤ 0.01 |  |
| Fc1ccc(O[C@@H](C2CC2)[C@H]2CCNC2)c(F)c1Cl [Example 16-53, (S)-3-[(S)-(3-Chloro-2,4-difluorophenoxy)cyclopropylmethyl]pyrrolidine] | ≤ 0.01 | ≤ 0.01 | ≤ 0.01 | ≤ 0.01 |  |
| COc1c(F)ccc(O[C@@H](C2CC2)[C@H]2CCNC2)c1F [Example 16-54, (S)-3-[(S)cyclopropyl-(2,4-difluoro-3-methoxyphenoxy)methyl]pyrrolidine] | ≤ 0.01 | ≤ 0.01 | ≤ 0.01 | ≤ 0.01 |  |
| COc1c(O[C@H](C2CC2)[C@H]2CCNC2)ccc(Cl)c1Cl [Example 16-56, (S)-3-[(R)cyclopropyl-(3,4-dichloro-2-methoxyphenoxy)methyl]pyrrolidine] | ≤ 0.01 | ≤ 0.316 | ≤ 0.01 | ≤ 0.316 |  |
| Fc1ccc(Cl)c(Cl)c1O[C@@H](C1CC1)[C@H]1CCNC1 [Example 16-59, (S)-3-[(S)cyclopropyl-(2,3-dichloro-6-fluorophenoxy)methyl]pyrrolidine] | ≤ 0.01 | ≤ 0.01 | ≤ 0.01 | ≤ 0.01 |  |
| Fc1ccc(Cl)c(Cl)c1O[C@H](C1CC1)[C@H]1CCNC1 [Example 16-60, (S)-3-[(R)cyclopropyl-(2,3-dichloro-6-fluorophenoxy)methyl]pyrrolidine] | ≤ 0.01 | ≤ 0.01 | ≤ 0.01 | ≤ 0.01 |  |
| Cc1ccc(F)c(O[C@@H](C2CC2)[C@H]2CCNC2)c1Cl [Example 16-62, (S)-3-[(S)-(2-Chloro-6-fluoro-3-methylphenoxy)cyclopropylmethyl]pyrrolidine] | ≤ 0.1 | ≤ 0.01 | ≤ 0.01 | ≤ 0.01 |  |
| Cc1ccc(F)c(O[C@H](C2CC2)[C@H]2CCNC2)c1Cl [Example 16-63, (S)-3-[(R)-(2-Chloro-6-fluoro-3-methylphenoxy)cyclopropylmethyl]pyrrolidine] | ≤ 0.1 | ≤ 0.01 | ≤ 0.01 | ≤ 0.01 |  |
| COc1ccc(F)c(O[C@@H](C2CC2)[C@H]2CCNC2)c1Cl [Example 16-64, (S)-3-[(S)-(2-Chloro-6-fluoro-3-methoxyphenoxy)cyclopropylmethyl]pyrrolidine] | ≤ 0.01 | ≤ 0.01 | ≤ 0.01 | ≤ 0.01 |  |
| Fc1ccc(Cl)c(F)c1O[C@@H](C1CC1)[C@H]1CCNC1 [Example 16-66, (S)-3-[(S)-(3-Chloro-2,6-difluorophenoxy)cyclopropylmethyl]pyrrolidine] | ≤ 0.1 | ≤ 0.01 | ≤ 0.01 | ≤ 0.01 |  |
| Fc1ccc(Cl)c(F)c1O[C@H](C1CC1)[C@H]1CCNC1 [Example 16-67, (S)-3-[(R)-(3-Chloro-2,6-difluorophenoxy)cyclopropylmethyl]pyrrolidine] | ≤ 0.1 | ≤ 0.01 | ≤ 0.01 | ≤ 0.01 |  |
| Cc1cc(O[C@@H](C2CC2)[C@H]2CCNC2)c(Cl)cc1Cl [Example 16-72, (S)-3-[(S)cyclopropyl-(2,4-dichloro-5-methylphenoxy)methyl]pyrrolidine] | ≤ 0.01 | ≤ 0.1 | ≤ 0.01 | ≤ 0.1 |  |
| COc1cc(Cl)c(F)cc1O[C@@H](C1CC1)[C@H]1CCNC1 [Example 16-74, (S)-3-[(S)-(4-Chloro-5-fluoro-2-methoxyphenoxy)cyclopropylmethyl]pyrrolidine] | ≤ 0.01 | ≤ 0.01 | ≤ 0.01 | ≤ 0.01 |  |
| Fc1cc(Cl)cc(F)c1O[C@H](C1CC1)[C@H]1CCNC1 [Example 16-80, (S)-3-[(R)-(4-Chloro-2,6-difluorophenoxy)cyclopropylmethyl]pyrrolidine] | ≤ 0.01 | ≤ 0.01 | ≤ 0.01 | ≤ 0.01 |  |
| Clc1cccc(O[C@@H](C2CC2)[C@H]2CCNC2)c1 [Example 16-84, (S)-3-[(S)-(3-Chlorophenoxy)cyclopropylmethyl]pyrrolidine] | ≤ 0.1 | ≤ 0.01 | ≤ 0.01 | ≤ 0.01 |  |
| Clc1cccc(O[C@H](C2CC2)[C@H]2CCNC2)c1 [Example 16-85, (S)-3-[(R)-(3-Chlorophenoxy)cyclopropylmethyl]pyrrolidine] | ≤ 0.1 | ≤ 0.01 | ≤ 0.01 | ≤ 0.01 |  |
| Clc1ccc(O[C@@H](C2CC2)[C@H]2CCNC2)cc1Cl [Example 16-87, (S)-3-[(S)cyclopropyl-(3,4-dichlorophenoxy)methyl]pyrrolidine] | ≤ 0.01 | ≤ 0.01 | ≤ 0.01 | ≤ 0.01 |  |
| Clc1ccc(O[C@H](C2CC2)[C@H]2CCNC2)cc1Cl [Example 16-88, (S)-3-[(R)cyclopropyl-(3,4-dichlorophenoxy)methyl]pyrrolidine] | ≤ 0.01 | ≤ 0.01 | ≤ 0.01 | ≤ 0.01 |  |
| Cc1cc(O[C@@H](C2CC2)[C@H]2CCNC2)ccc1Cl [Example 16-94, (S)-3-[(S)-(4-Chloro-3-methylphenoxy)cyclopropylmethyl]pyrrolidine] | ≤ 0.01 | ≤ 0.01 | ≤ 0.01 | ≤ 0.01 |  |
| Cc1cc(O[C@H](C2CC2)[C@H]2CCNC2)ccc1Cl [Example 16-95, (S)-3-[(R)-(4-Chloro-3-methylphenoxy)cyclopropylmethyl]pyrrolidine] | ≤ 0.01 | ≤ 0.1 | ≤ 0.01 | ≤ 0.1 |  |
| c1ccc2c(O[C@@H](C3CC3)[C@H]3CCNC3)cccc2c1 [Example 22, (S)-3-[(S)-Cyclopropyl(naphthalen-1-yloxy)methyl]pyrrolidine] | ≤ 0.01 | ≤ 0.01 | ≤ 0.01 | ≤ 0.01 |  |
| CNCC[C@H](Oc1cccc2ccccc12)c1cccs1 [duloxetine] |  |  |  |  | selectivity (measured as pKi) for SERT over NET (SERT and NET): 10 fold; affinity for SERT relative to NET (SERT and NET; Vaishnavi et al. (2004)): higher affinity for SERT relative to NET |
| CCN(CC)C(=O)C1(c2ccccc2)CC1CN (stereo not drawn) [milnacipran] |  |  |  |  | selectivity (measured as pKi) for SERT over NET (SERT and NET): 2.5 fold |
| (S)-3-[(R)-Cyclopropyl-(2-methyl-3-vinylphenoxy)methyl]pyrrolidine [Example 23-1] |  |  |  |  | SERT pIC50 (hSERT [1]): ≧8.0*; NET pIC50 (hNET [2]): ≧8.0*; SERT pKi (hSERT [3]): ≧8.0; NET pKi (hNET [4]; hNET HEK-293 membranes, 1.0 nM 3H-nisoxetine, values given as lower bounds): ≧8.0 |
